In this data set the test system is rodent carcinogenicity bioassays, tumor incidence. The data set can be described thus: CCRIS carcinogenicity studies. In a few lines:
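NCI-built, expert-reviewed records of carcinogenicity and related test outcomes (mutagenicity, tumor promotion/inhibition) compiled from published and report sources, historical span 1985-2011, not updated.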

Molecules are shown by their SMILES. Entries after “also recorded” stand apart in the source; their conditions may differ. Activity calls are given as the source filed them. The rule behind the calls is not given here.

For `Cn1c(N)nc2c3cccnc3ccc21`, the carcinogen call is “active; positive” (Species: MONKEY, Strain/Sex: MACAQUE/MALE,FEMALE, Route: GAVAGE, Dose: 0, 10, 20 MG/KG 5/D/WK FOR DURATION OF STUDY (STUDY DURATION: 91 MO), Dose: 0, 10, 20 MG/KG 5/D/WK FOR DURATION OF STUDY (STUDY DURATION: 91 MO), Tumor Site: Type of Lesion: LIVER: HEPATOCELLULAR CARCINOMA); “active; positive” (Species: MOUSE, Strain/Sex: B6C3F1/MALE, Route: INTRAPERITONEAL, Dose: 0, 0.625 UMOL IN 35 µL DMSO ON D 1, 8, AND 15 AFTER BIRTH (STUDY DURATION: 8 MO), Tumor Site: Type of Lesion: LIVER: HEPATOCELLULAR ADENOMA); “active; positive” (Species: MOUSE, Strain/Sex: B6C3F1/MALE, Route: INTRAPERITONEAL, Dose: 0, 0.625 UMOL IN 35 µL DMSO ON D 1, 8, AND 15 AFTER BIRTH (STUDY DURATION: 12 MO), Tumor Site: Type of Lesion: LIVER: HEPATOCELLULAR ADENOMA); “active; positive” (Species: MOUSE, Strain/Sex: B6C3F1/MALE, Route: INTRAPERITONEAL, Dose: 0, 1.25 UMOL IN 35 µL DMSO ON D 1, 8, AND 15 AFTER BIRTH (STUDY DURATION: 8 MO), Tumor Site: Type of Lesion: LIVER: HEPATOCELLULAR ADENOMA); “active; positive” (Species: MOUSE, Strain/Sex: B6C3F1/MALE, Route: INTRAPERITONEAL, Dose: 0, 1.25 UMOL IN 35 µL DMSO ON D 1, 8, AND 15 AFTER BIRTH (STUDY DURATION: 12 MO), Tumor Site: Type of Lesion: LIVER: HEPATOCELLULAR ADENOMA, HEPATOCELLULAR CARCINOMA); “active; positive” (Species: MOUSE, Strain/Sex: CD-1/FEMALE, Route: INTRAPERITONEAL, ORAL, Dose: 0, 5 µL OF A 14 MG/ML SOLUTION IN DMSO ON DAYS 1, 3, 5, 7, 10, 13, 17, 21, 24 AND 28 OF LIFE THEN 2/WK TO WK 10 FOLLOWED, Tumor Site: Type of Lesion: LIVER: CARCINOMA, LUNG: ADENOMA). The carcinogen call is, setting by setting: (Species: MOUSE, Strain/Sex: CD-1/MALE, Route: INTRAPERITONEAL, ORAL, Dose: 0, 5 µL OF A 14 MG/ML SOLUTION IN DMSO ON DAYS 1, 3, 5, 7, 10, 13, 17, 21, 24 AND 28 OF LIFE THEN 2/WK TO WK 10 FOLLOWED, Tumor Site: Type of Lesion: LIVER: CARCINOMA) “active; positive”; (Species: MOUSE, Strain/Sex: CDF1/FEMALE, Route: ORAL, Dose: 0, 0.03% IN DIET FOR UP TO 675 D (STUDY DURATION: 675 D), Tumor Site: Type of Lesion: LIVER: HEPATOCELLULAR ADENOMA OR CARCINOMA OR HEMANGIOENDOTHELIOMA, FORESTOMACH: PAPILLOMA OR SQUAMOUS CELL CARCINOMA, L, Tumor Site: Type of Lesion: LIVER: HEPATOCELLULAR ADENOMA OR CARCINOMA OR HEMANGIOENDOTHELIOMA, FORESTOMACH: PAPILLOMA OR SQUAMOUS CELL CARCINOMA, L) “active; positive”; (Species: MOUSE, Strain/Sex: CDF1/MALE, Route: ORAL, Dose: 0, 0.03% IN DIET FOR UP TO 675 D (STUDY DURATION: 675 D), Tumor Site: Type of Lesion: LIVER: HEPATOCELLULAR ADENOMA OR CARCINOMA OR HEMANGIOENDOTHELIOMA, FORESTOMACH: PAPILLOMA OR SQUAMOUS CELL CARCINOMA, L, Tumor Site: Type of Lesion: LIVER: HEPATOCELLULAR ADENOMA OR CARCINOMA OR HEMANGIOENDOTHELIOMA, FORESTOMACH: PAPILLOMA OR SQUAMOUS CELL CARCINOMA, L) “active; positive”; (Species: MOUSE, Strain/Sex: EU-PIM-1/FEMALE, Route: ORAL, Dose: 0, 0.03% IN DIET FOR 24 WK (STUDY DURATION: 40 WK)) “inactive; negative”; (Species: MOUSE, Strain/Sex: EU-PIM-1/MALE, Route: ORAL, Dose: 0, 0.03% IN DIET FOR 24 WK (STUDY DURATION: 40 WK)) “inactive; negative”; (Species: MOUSE, Strain/Sex: NON-TRANSGENIC WILD-TYPE/FEMALE, Route: ORAL, Dose: 0, 0.03% IN DIET FOR 24 WK (STUDY DURATION: 40 WK)) “inactive; negative”. In addition, the carcinogen call was “inactive; negative” (Species: MOUSE, Strain/Sex: NON-TRANSGENIC WILD-TYPE/MALE, Route: ORAL, Dose: 0, 0.03% IN DIET FOR 24 WK (STUDY DURATION: 40 WK)); “active; positive” (Species: MOUSE, Strain/Sex: SEVERE COMBINED IMMUNODEFICIENT/FEMALE, Route: ORAL, Dose: 0, 300 PPM IN THE DIET FOR 78 WK (STUDY DURATION: 78 WK), Tumor Site: Type of Lesion: LIVER: HEPATOCELLULAR CARCINOMA); “inactive; negative” (Species: MOUSE, Strain/Sex: TRANSGENIC EU-PIM-1/FEMALE, Route: ORAL, Dose: 0, 0.03% IN DIET FOR 24 WK (STUDY DURATION: 40 WK)); “inactive; negative” (Species: MOUSE, Strain/Sex: TRANSGENIC EU-PIM-1/MALE, Route: ORAL, Dose: 0, 0.03% IN DIET FOR 24 WK (STUDY DURATION: 40 WK)); “inactive; negative” (Species: MOUSE, Strain/Sex: WILD-TYPE/FEMALE, Route: ORAL, Dose: 0, 0.03% IN DIET FOR 24 WK (STUDY DURATION: 40 WK)); “inactive; negative” (Species: MOUSE, Strain/Sex: WILD-TYPE/MALE, Route: ORAL, Dose: 0, 0.03% IN DIET FOR 24 WK (STUDY DURATION: 40 WK)). For the same compound, the carcinogen call by setting is: (Species: Mouse, Strain/Sex: Non transgenic rasH2 Wild-type/ Female (10/10)/(15/15), Route: Oral, Dose: 300 ppm in the diet starting at 7 weeks of age (Study duration: 26 weeks)) “inactive; negative: although only hyperplasia observed in wild-type mouse, forestomach pa”; (Species: Mouse, Strain/Sex: Non transgenic rasH2 Wild-type/ Male (10/10)/(15/15), Route: Oral, Dose: 300 ppm in the diet starting at 7 weeks of age (Study duration: 26 wks)) “inactive; negative; although only hyperplasia observed in wild-type mouse, forestomach pa”; (Species: Mouse, Strain/Sex: Parp-1+/+ C57BL/6/Male, Route: Oral, Dose: 300 ppm in diet for 60 wk, study duration 60 wk, Tumor Site: Type of Lesion: Spleen: Malignant lymphoma (3/18)) “active; positive (no lung adenomas or forestomach papillomas found). parp-1 deficiency (; also recorded: active; positive (however, no lung adenomas or forestomach papillomas found. parp-1 defi”; (Species: RAT, Strain/Sex: F344/MALE, Route: INTRARECTAL, Dose: 0, 50.5 MG/KG IN 1.7 ML/KG DMSO INFUSED 3/WK FOR 2 MO THEN 2/WK FOR DURATION OF STUDY (STUDY DURATION: 18 MO), Tumor Site: Type of Lesion: COLON: CARCINOMA, SKIN: SEBACEOUS SQUAMOUS CELL CARCINOMA) “active; positive”; (Species: RAT, Strain/Sex: SPRAGUE-DAWLEY/FEMALE, Route: GAVAGE, Dose: 0, 0.35 MMOL/KG BW IN 0.25 ML OF 5% EMULPHOR IN WATER 3/WK FOR WK 1-4 THEN 2/WK FOR WK 5-8 FOLLOWED BY 1/WK FOR 23 WK (S, Tumor Site: Type of Lesion: MAMMARY GLAND: CARCINOMA, LIVER: TUMOR, EAR DUCT: TUMOR, Tumor Site: Type of Lesion: MAMMARY GLAND: CARCINOMA, LIVER: TUMOR, EAR DUCT: TUMOR) “active; positive”; (Species: RAT, Strain/Sex: WISTAR/MALE, Route: INTRAGASTRIC, Dose: 0, 10 MG/KG IN ACIDIFIED WATER 1/D FOR 2 WK (STUDY DURATION: 58 WK)) “inactive; negative”.
For the compound `CCOP(=S)(OCC)Oc1nc(Cl)c(Cl)cc1Cl`, the carcinogen call is “inactive; negative (study details not given in source; purity 99.6%)” (Species: Mouse, Strain/Sex: CD-1/Female (59/group), Route: Oral, Dose: 0, 5, 50, 250 ppm in diet for 79 wk, Dose: 0, 5, 50, 250 ppm in diet for 79 wk); “inactive; negative (study details not given in source; purity 99.6%)” (Species: Mouse, Strain/Sex: CD-1/Male (59/group), Route: Oral, Dose: 0, 5, 50, 250 ppm in diet for 79 wk, Dose: 0, 5, 50, 250 ppm in diet for 79 wk); “inactive; negative” (Species: RAT, Strain/Sex: F344/FEMALE, Route: ORAL, Dose: 0, 0.05, 0.1, 1, 10 MG/KG BW/D IN DIET FOR 104 WK (STUDY DURATION: 104 WK), Dose: 0, 0.05, 0.1, 1, 10 MG/KG BW/D IN DIET FOR 104 WK (STUDY DURATION: 104 WK)); “inactive; negative” (Species: RAT, Strain/Sex: F344/MALE, Route: ORAL, Dose: 0, 0.05, 0.1, 1, 10 MG/KG BW/D IN DIET FOR 104 WK (STUDY DURATION: 104 WK), Dose: 0, 0.05, 0.1, 1, 10 MG/KG BW/D IN DIET FOR 104 WK (STUDY DURATION: 104 WK)).

The values above are taken from PubChem BioAssay AID1259411 (Chemical Carcinogenesis Research Information System (CCRIS), 2018).
